Measurements as given in patent publication US20250282895A1, “PHARMACEUTICAL COMPOSITIONS OF CHEMOTHERAPEUTIC AGENTS BASED ON BETA-S[…]-AMINO ACID DERIVATIVES” (priority 2021, published 2025).
Counter-ions that a name gives are not always drawn.

Assay: Stability of Compound (1c) hydrochloride salt/SBE6.5-β-CD guest-host inclusion complex in 0.9% saline (HPLC/UV)
Type: physicochemical
Conditions: SBE6.5-β-CD complex in 0.9% saline
Experimental: A stock solution was prepared by dissolving 68.8 mg (0.206 mmol) of Compound (1c) (free base) in about 20.0 mL of a mixture of acetonitrile/water (1:1, v/v) with vortexing in a clean graduated glass cylinder (25 mL). A solution of 0.407 mL of 0.5072 M aq. HCl (0.206 mmol, 1.0 eq.; Fluka, 318957) was added with gentle vortexing, and the resulting clear solution was further diluted to 25.0 mL with a mixture of acetonitrile/water (1:1, v/v) with gentle vortexing to afford a stock solution of Compound (1c) as a mono-HCl salt of a concentration 2.75 mg/mL. This solution was filtered through a 0.45 μm nylon syringe filter into a clean 50 mL Erlenmeyer flask. Aliquots of 2.0 mL (2× 1.0 mL; 2× 2.75 mg) of the stock solution were rapidly pipetted into clean 12 mL scintillation vials. The aliquots were frozen at −78° C. (dry ice/acetone bath) and lyophilized at about 100 mTorr for about 16 hours to provide test vials each containing 6.1 mg (0.0165 mmol) of Compound (1c) mono-hydrochloride salt (mono-HCl salt) (corresponding to 5.5 mg of Compound (1c)),free base, as a colorless powdery solid.
A cyclodextrin derivative (270 mg; SBE6.5-β-CD, Captisol®, average MW 2,163 g/mol) was added to 6.1 mg (0.0165 mmol) of(S)-3-amino-4-(5-(bis(2-chloroethyl)amino)-2-methylphenyl) butanoic acid mono hydrochloride salt (Compound (1c) mono-HCl salt) in a 12 mL glass vial and dissolved in 3 mL to 4 mL of double-distilled water by vortexing for about 30 sec to provide a clear, colorless solution. The solution was filtered through a 0.45 μm nylon syringe filter into a 12 mL glass vial. The filter was washed twice with double-distilled water (each about 0.5 mL) to provide a clear colorless solution having a pH from 4.4 to 4.7. The filtered solution was frozen at −78° C. (dry ice/acetone bath) and the solvent was lyophilized off at about 100 mTorr for about 16 hours to provide a colorless powdery solid consisting of 6.1 mg (0.0165 mmol) of Compound (1c) mono-HCl salt (corresponding to 5.5 mg of Compound (1c) as free base) and 270 mg of SBE6.5-β-CD, Captisol®). Several vials with the cyclodextrin derivative/Compound (1c) mono-HCl salt guest-host inclusion complex were prepared according to this method.
The cyclodextrin derivative/Compound (1c) mono-HCl salt guest-host inclusion complex was reconstituted by dissolving the guest-host inclusion complex in 0.86 mL of 0.9% saline to provide 1.0 mL of a solution having a nominal concentration of 6.1 mg/mL of Compound (1c) mono-HCl salt guest-host inclusion complex which equates to a nominal concentration of 5.5 mg/mL of the Compound (1c)) guest-host inclusion complex.
A 0.5 mL aliquot of this solution was diluted with 5.0 mL of 0.9% saline, and the pH adjusted with 5 μL of a saturated aqueous NaHCO3 solution to provide 5.5 mL of a clear, colorless solution having a nominal concentration of 0.5 mg/mL Compound (1c) compound and a pH from 5.3 to 5.5.
A 1.0 mL aliquot of the reconstituted solution was diluted with 4.5 mL of 0.9% saline, and the pH was adjusted with about 10 μL of a saturated aqueous NaHCO3 solution to provide 5.5 mL of a clear, colorless solution having a nominal concentration of 1.0 mg/mL of Compound (1c) and a pH of 5-6.
A 1.0 mL aliquot of the reconstituted solution was diluted with 1.75 mL of 0.9% saline, and the pH was adjusted with about 10 μL of a saturated aqueous NaHCO3 solution to provide 2.75 mL of a clear, colorless solution having a nominal concentration of 2.0 mg/mL of Compound (1c) and a pH of 5-6.
The solutions were placed in glass vials and stored at either room temperature (about 25° C.) or refrigerated (about 0° C.), and the amount of Compound (1c) was measured at intervals using analytical high pressure liquid chromatography coupled to a UV detector (HPLC/UV) as described in Example 4.

For `Cc1ccc(N(CCCl)CCCl)cc1C[C@H](N)CC(=O)O` [Compound (1c)•HCl, (S)-3-amino-4-(5-(bis(2-chloroethyl)amino)-2-methylphenyl) butanoic acid mono hydrochloride salt], the “Compound (1c) (% AUC)” value (nominal 0.125 mg/mL, 0° C., 31 hours) was 93 % AUC, the “Compound (1c) (% AUC)” value (nominal 0.125 mg/mL, 25° C., 2 hours) was 98 % AUC and the “Compound (1c) (% AUC)” value (nominal 0.5 mg/mL, 0° C., 9 hours) was 99 % AUC. For the same compound, the “Compound (1c) (% AUC)” value (nominal 0.5 mg/mL, 25° C., 2 hours) was 97 % AUC, the “Compound (1c) (% AUC)” value (nominal 1.0 mg/mL, 0° C., 31 hours) was 100 % AUC and the “Compound (1c) (% AUC)” value (nominal 1.0 mg/mL, 25° C., 2 hours) was 91 % AUC. For the same compound, the “Compound (1c) (% AUC)” value (nominal 2.0 mg/mL, 0° C., 31 hours) was 91 % AUC and the “Compound (1c) (% AUC)” value (nominal 2.0 mg/mL, 25° C., 2 hours) was 99 % AUC.
